Reference: patent US8067442B2, “Heterocyclic antiviral compounds” (Roche Palo Alto LLC, priority 2008, dated 2011)

Tests used:
[1] = target: T1, HCV polymerase (NS5B570n-Con1) (Hepatitis C virus genotype 1b, UniProt Q9WMX2); experiment: biochemical; parameters: species or system HCV Con1 strain
T1 construct: a 21 amino acid C-terminal deletion of full-length HCV polymerase; made in house; host or cells: E. coli BL21(DE3) pLysS, plasmid pET17b
Description: The enzymatic activity of HCV polymerase (NS5B570n-Con1) was measured as the incorporation of radiolabeled nucleotide monophosphates into acid insoluble RNA products. Unincorporated radiolabeled substrate was removed by filtration and scintillant was added to the washed and dried filter plate containing radiolabeled RNA product. The amount of RNA product generated by NS5B570n-Con1 at the end of the reaction was directly proportional to the amount of light emitted by the scintillant.
The HCV polymerase used in the enzymatic activity assay is a 21 amino acid C-terminal deletion of full-length HCV polymerase derived from HCV Con1 strain, genotype 1b (GenBank accession number AJ242654) (NS5B570n-Con1). The NS5B570n-Con1 was sub-cloned downstream to the T7 promoter of the plasmid expression construct pET17b and transformed into E. coli strain BL21(DE3) pLysS for protein expression. A single colony was used to start an innoculum for a 10 L culture in LB media supplemented with 100 μg/mL ampicillin at 37° C. Protein expression was induced by the addition of 0.25 mM isopropyl-β-D-thiogalactopyranoside (IPTG) when the optical density of the culture at […] was 0.8. Induction of protein expression was carried out at 30° C. for 16 h after which the cells were harvested by centrifugation. NS5B570n-Con1 was purified to homogeneity using a three-column purification protocol including subsequent column chromatography on Ni-NTA, SP-Sepharose HP and Superdex 75 resins.
Enzymatic reactions in the presence of cIRES RNA template (see section [0300]) contained 20 nM cIRES RNA, 20 nM NS5B570n-Con1 enzyme, 0.5 μCi of tritiated UTP (Perkin Elmer catalog no. TRK-412; specific activity: 30 to 60 Ci/mmol), 1 μM each ATP, CTP, and GTP, 40 mM Tris-HCl pH 8.0, 40 mM NaCl, 4 mM DTT (dithiothreitol), 4 mM MgCl2, 5 μl of compound serial diluted in DMSO, and nuclease-free water to a final reaction volume of 50 μl. Enzymatic reactions in the presence of 20 nM cIRES template, 20 nM NS5B570n-Con1 enzyme, 1 μCi of tritiated UTP (Perkin Elmer catalog no. TRK-412; specific activity: 30 to 60 Ci/mmol), 40 mM Tris-HCl pH 8.0, 40 mM NaCl, 4 mM DTT (dithiothreitol), 4 mM MgCl2, 5 μl of compound serial diluted in DMSO, and nuclease-free water to a final reaction volume of 50 μl. Reaction mixtures were assembled in 96-well filter plates (cat #MADVNOB, Millipore Co.) and incubated for 2 h at 30° C. Reactions were stopped by addition of 10% final (v/v) trichloroacetic acid and incubated for 40 min at 4° C. Reactions were filtered, washed with 8 reaction volumes of 10% (v/v) trichloroacetic acetic acid, 4 reaction volumes of 70% (v/v) ethanol, air dried, and 25 μl of scintillant (Microscint 20, Perkin-Elmer) was added to each reaction well.
Two RNA templates can be used to assay compounds described herein. The cIRES RNA template is 377 nucleotide long and consisting of a partial complementary sequence (36 nucleotides) of the core protein, followed by 341 nucleotide of the complementary sequence of the internal ribosome entry site. The poly A RNA template (GE Amersham catalog number 27-4110) was a homopolymeric RNA pre-annealed to a oligo(rU)16 primer at a molar ratio of 3-to-1 (primer-template). The cIRES template was used in the assay unless otherwise noted.
The amount of light emitted from the scintillant was converted to counts per minute (CPM) on a Topcount® plate reader (Perkin-Elmer, Energy Range: Low, Efficiency Mode Normal, Count Time: 1 min, Background Subtract: none, Cross talk reduction: Off).
Data was analyzed in Excel® (Microsoft®) and ActivityBase® (Idbs®). The reaction in the absence of enzyme was used to determine the background signal, which was subtracted from the enzymatic reactions. […] All data was expressed as a percentage of the positive control. The compound concentration at which the enzyme-catalyzed rate of RNA synthesis was reduced by 50% (IC50) was calculated by fitting

## CC(NS(C)(=O)=O)c1ccc(-c2coc3c(C(C)(C)C)cc(-c4ccc[nH]c4=O)cc23)cc1 (centres unmarked) [Compound I-88, N-(1-{4-[7-tert-Butyl-5-(2-oxo-1,2-dihydro-pyridin-3-yl)-benzofuran-3-yl]-phenyl}-ethyl)-methanesulfonamide]
[1]
  IC50: 8 nM
other
  melting point: 255 to 257 °C

## CC(C)(C)c1cc(-c2ncc[nH]c2=O)cc2c(C(=O)N3CCCC(CNS(C)(=O)=O)C3)coc12 (centres unmarked) [Compound 102, N-{1-[7-tert-Butyl-5-(3-oxo-3,4-dihydro-pyrazin-2-yl)-benzofuran-3-carbonyl]-piperidin-3-ylmethyl}-methanesulfonamide]
[1]
  IC50: 8 nM
other
  melting point: 172 to 174 °C

## CCS(=O)(=O)NC[C@H]1CCN(C(=O)c2coc3c(C(C)(C)C)cc(-c4ccc[nH]c4=O)cc23)C1 [Compound I-106]
[1]
  IC50: 17 nM
other
  melting point: 240 to 242 °C

## CC(C)(C)c1cc(-c2ccc[nH]c2=O)cc2c(C(=O)N3CCC[C@@H]3CNS(C)(=O)=O)csc12 [Compound 116, N-{(R)-1-[7-tert-Butyl-5-(2-oxo-1,2-dihydro-pyridin-3-yl)-benzo[b]thiophene-3-carbonyl]-pyrrolidin-2-ylmethyl}-methanesulfonamide]
[1]
  IC50: 4 nM
other
  melting point: 289 to 291 °C

## CC(C)(C)c1cc(-c2ccc[nH]c2=O)cc2c(C(=O)Nc3cccc(CNS(C)(=O)=O)c3)coc12 [Compound I-85]
[1]
  IC50: 741 nM
other
  melting point: 237 to 239 °C

## CC(C)(C)c1cc(-c2ccc[nH]c2=O)cc2c(-c3ccc(C(N)=O)cc3)coc12 [Compound I-87]
[1]
  IC50: 2 nM
other
  melting point: 282 to 284 °C

## CN(CC1CCCN(C(=O)c2coc3c(C(C)(C)C)cc(-c4ccc[nH]c4=O)cc23)C1)S(C)(=O)=O (centres unmarked) [Compound I-104]
[1]
  IC50: 20 nM
other
  melting point: 155 to 157 °C

## CC(C)(C)c1cc(-c2ccc[nH]c2=O)cc2c(-c3cnc(N)nc3)coc12 [Compound I-89]
[1]
  IC50: 690 nM
other
  melting point: > 300 °C

## CC(C)(C)c1cc(-c2ccc[nH]c2=O)cc2c(-c3cccc(NS(C)(=O)=O)c3)coc12 [Compound I-82, N-{3-[7-tert-Butyl-5-(2-oxo-1,2-dihydro-pyridin-3-yl)-benzofuran-3-yl]-phenyl}-methanesulfonamide]
[1]
  IC50: 113 nM
other
  melting point: 227 to 230 °C

## CC(C)(C)c1cc(-c2ccc[nH]c2=O)cc2c(-c3ccc(CN(CCO)S(C)(=O)=O)cc3)coc12 [Compound I-76, N-{4-[7-tert-Butyl-5-(2-oxo-1,2-dihydro-pyridin-3-yl)-benzofuran-3-yl]-benzyl}-N-(2-hydroxy-ethyl)-methanesulfonamide]
[1]
  IC50: 35 nM
other
  melting point: 222 to 224 °C

## CC(C)(C)c1cc(-c2ccc[nH]c2=O)cc2c(C(=O)c3ccccc3)coc12 [Compound I-20]
[1]
  IC50: 49 nM
other
  melting point: 271 to 272 °C

## CC(C)(C)c1cc(-c2ccc[nH]c2=O)cc2c(-c3cccc(CNS(C)(=O)=O)c3)coc12 [Compound I-81]
[1]
  IC50: 175 nM
other
  melting point: 130 to 133 °C

## CC(C)(C)c1cc(-c2ccc[nH]c2=O)cc2c(-c3ccccc3)coc12 [Compound I-24]
[1]
  IC50: 19 nM
other
  melting point: 257 to 258 °C

## CC(C)(C)c1cc(-c2ccc[nH]c2=O)cc2c(C(=O)N3CCC3)coc12 [Compound I-94]
[1]
  IC50: 148 nM
other
  melting point: > 300 °C

## CC(C)(C)c1cc(-c2ccc[nH]c2=O)cc2c(-c3ccc(NS(C)(=O)=O)cc3)coc12 [Compound I-79, N-{4-[7-tert-Butyl-5-(2-oxo-1,2-dihydro-pyridin-3-yl)-benzofuran-3-yl]-phenyl}-methanesulfonamide]
[1]
  IC50: 27 nM
other
  melting point: 182 to 184 °C

## CC(C)(C)c1cc(-c2ccc[nH]c2=O)cc2c(-c3ccc(CNS(C)(=O)=O)cc3)coc12 [Compound I-37, N-{4-[7-tert-Butyl-5-(2-oxo-1,2-dihydro-pyridin-3-yl)-benzofuran-3-yl]-benzyl}1-methanesulfonamide]
[1]
  IC50: 4 nM
other
  melting point: 271 to 273 °C
